Measurements as given in patent US20100239556A1, “PROMOTING ECM PRODUCTION BY FIBROBLAST CELLS AND/OR PROMOTING MIGRATION OF FIBROBLAST CELLS IN A BIOLOGICAL SYSTEM” (TGR BioScience Pty Ltd., priority 2006, published 2010).

B1: horse radish peroxidase (protein, UniProt P00433 31-338, looked up)
Peroxidase C1A: QLTPTFYDNSCPNVSNIVRDTIVNELRSDPRIAASILRLHFHDCFVNGCDASILLDNTTSFRTEKDAFGNANSARGFPVIDRMKAAVESACPRTVSCADLLTIAAQQSVTLAGGPSWRVPLGRRDSLQAFLDLANANLPAPFFTLPQLKDSFRNVGLNRSSDLVALSGGHTFGKNQCRFIMDRLYNFSNTGLPDPTLNTTYLQTLRGLCPLNGNLSALVDFDLRTPTIFDNKYYVNLEEQKGLIQSDQELFSSPNATDTIPLVRSFANSTQTFFNAFVEAMDRMGNITPLTGTQGQIRLNCRVVNSNS

Key:
human skin = assay: Collagen I and III immunohistochemistry in ex vivo human skin (Franz cell); settings: intradermal injection 100 μl, 72 hours
Protocol: To confirm proteins with peroxidise activity can stimulate ECM production in human skin, studies were performed on ex vivo skin collected from tissue reduction surgery. The studies were undertaken using a modification of the OECD Test Guideline 428 (2004) Skin Absorption: in vitro method. Freshly excised human skin was collected in a
Hanks balanced salt solution (HBSS) and after being thoroughly washed in sterile, colour free DMEM/F12 media (Dulbecco's Modified Eagle Medium/Hams F12, Invitrogen) to remove surface debris, the subcutaneous fat layer was removed. Circles of full-thickness skin 15 mm in diameter were cut and placed epidermis side up on vertical glass diffusion cells of a Franz cell diffusion system (Crown Glass Co, NJ, USA). The skin was secured between two clamped ground glass joints and allowed to equilibrate and hydrate for approximately 30 minutes with the receptor chambers of the diffusion cells containing colour-free DMEM/F12+1% (v/v) of an antibiotic mix (200 mM L-glutamine, 10,000 units penicillin, 10 mg streptomycin per ml; Sigma, USA). The temperature of the jacketed diffusion cells was maintained at 34° C.±1° C. and the contents were constantly stirred using a mini magnetic stirrer. Proteins with peroxidase activity or a control were injected intradermally into the skin discs in a volume of 100 μl using a 27 gauge needle. After 72 hours the skin discs were removed and bisected with one half fixed in 4% buffered formalin for histological assessment and the other half snap frozen in liquid nitrogen for immunohistochemical detection of collagen I and III protein within the dermis. Frozen skin pieces were processed into cryoblocks, cut onto slides and fixed in acetone/methanol. All slides were blocked with 2% (w/v) bovine serum albumin (BSA) in HBSS and then incubated with either anti-human collagen type I or III primary antibodies (Chemical Credential, ICN or DakoCytomation respectively). The secondary antibody was biotinylated Multi-Link (DakoCytomation) with detection by streptavidin-biotinylated alkaline phosphatase (DakoCytomation). Visualisation was achieved by incubating each section with Naphthol AS/MX phosphate/fast red substrate containing 5 mM levamisole (Sigma). After washing, slides were counter stained with Mayer's Haematoxylin and assessed for collagen expression.

[1] = test system: human foreskin fibroblast cells (HFF); assay: Soluble collagen I, III and VI in HFF conditioned media (direct coat ELISA); format: cell-based; settings: for ECM protein levels in the media of HFF cells: 6 hour treatment, following 72 hours; for collagen I concentration in the media: ARP, HRP, SBP 12.5 μg/ml, LP 160 μg/ml, MP 250 μg/ml, untreated control 0.08 μg/ml; for collagen III levels: untreated control 0.11 μg/ml; for collagen VI in the cell media: untreated control 0.03 ug/ml; for collagen VI levels: both 5 and 7 days; for increase in collagen VI, steady state: 72 hours (ARP response not statistically significant, p=0.08)
Protocol: Primary human foreskin fibroblast cells (HFF) were seeded into 96 well plates at a density of 1.2×10^4 cells/well and cultured overnight in 10% fetal bovine serum/Dulbecco's minimum essential media (10% FBS/DMEM) at 37° C. and 5% CO2. The cells were then starved overnight in serum free DMEM and triplicate wells treated for six hours with a range of doses of proteins with peroxidase activity; horse radish peroxidase (HRP; 0.2-50 ug/ml), Arthromyces ramosus peroxidase (ARP; 0.2-50 ug/ml), microperoxidase (MP; 8-500 ug/ml), soy bean peroxidase (SBP; 0.2-100 ug/ml) and lactoperoxidase (LP; 10-310 ug/ml) (all obtained from Sigma-Aldrich). At the end of the six hour treatment period, the media was aspirated and replaced with fresh serum free DMEM and the cells cultured for a further 72 hours. […] This assay measures the reduction of oxidized, blue nonfluorescent Alamar Blue reagent to a pink fluorescent dye in the cell medium, such that the higher the amount of reduction, the greater the cell number and/or activity (O'Brien Eur J Biochem 267 2000). Briefly, cells were bathed in a 10% Alamar Blue/phosphate-buffered saline (PBS) solution for 30-60 minutes and fluorescence measured at wavelengths of 485 nm excitation and 595 nm emission using a Wallac Victor Multilabel HTS counter. Relative fluorescent units (RFU) for each sample were normalized to control wells (DMEM only treated cells) and data expressed as mean±standard error of the mean (sem) for triplicate wells. Experiments were repeated at least three times with the combined data from all experiments shown.
The amount of soluble collagen types I, III, and VI in HFF conditioned media was measured by a direct coat ELISA method using standard curves constructed from purified human collagen I, III or VI (extracted from human placenta; col I, BD Biosciences; col III and VI, Rocklands Immunochemicals) and fibronectin (extracted from human plasma, Chemicon). Samples and standards (20 μl/well) were added to a 384 well spectraplate (Packard BioScience) and left at room temperature (RT) overnight. The spectraplate was then washed 6 times with PBS-tween 0.05% (PBS-T) and 2.5% bovine serum albumin (BSA)/PBS blocking solution added to each well and the plate incubated for 1 hour at RT. The plate was then washed 6 times with PBS-T and primary antibody (0.25 μg/ml rabbit-anti-human-collagen I polyclonal; 2 μg/ml rabbit-anti-human-collagen III polyclonal; 0.25 μg/ml rabbit-anti-human-collagen VI polyclonal; 0.2 μg/ml rabbit-anti-human-fibronectin polyclonal, all from Rockland Immunochemicals) in 5% non-fat dairy milk added to each well for four hours at RT. After washing (6×PBS-T), europium tagged anti-rabbit secondary antibody (0.5 μg/ml 1% BSA/PBS; Wallac Oy) was added for 1 hour at RT. After a final wash (6×PBS-T), enhancement solution was added for at least 10 minutes and fluorescence measured at excitation 340 nm and emission 615 nm using a Wallac Victor Multilabel HTS counter. The respective ECM concentration of each sample was determined from the standard curve (μg/ml) and normalized to control wells (DMEM only treated cells) with the mean±sem for triplicate wells calculated. Experiments were repeated at least three times with the combined data from all experiments shown.

[2] = doses between 6.25 and 50 μg/ml

Row | Molecule | collagen III immuno-reactivity (human skin) | staining intensity for collagen I (human skin) | ECM protein levels in the media of HFF cells [1] | collagen I concentration in the media ([1]; 5 days) [µg/mL] | increase in collagen I compared to controls ([1]; 0.4 μg/ml, 72 hours) [fold] | collagen III levels ([1]; 5 days) [µg/mL] | collagen VI in the cell media ([1]; 7 days) [µg/mL] | collagen VI levels [1] | increase in collagen VI, steady state [1, 2] | also measured
1 | microperoxidase [MP] | increased collagen III staining | increased staining intensity for collagen I | increased ECM protein levels dose dependently | 0.17 |  |  |  |  |  | increase in collagen VI ([1]; any dose used, 72 hours): did not induce a significant increase
2 | soy bean peroxidase [SBP] |  |  | increased ECM protein levels dose dependently |  | 1.6 | 0.15 | 0.09 | increased the collagen VI levels |  | increase in collagen VI ([1]; 0.4 μg/ml, 72 hours): 1.2 fold; increase in collagen VI ([1]; 50 μg/ml, 72 hours): 5.4 fold; increase in collagen I compared to controls ([1]; 25 and 50 μg/ml, 72 hours): 10.5 fold; increase in collagen III, steady state ([1]; between 12.5 and 50 μg/ml, 72 hours): 2.1-2.3 fold
3 | Arthromyces ramosus peroxidase [ARP] |  |  | increased ECM protein levels dose dependently | 0.6 | 1.4 |  | 0.11 | increased the collagen VI levels | 2 fold | increase in collagen I compared to controls ([1]; 25 μg/ml, 72 hours): 5.8 fold; decrease in collagen III compared to control levels ([1]; 25 and 50 μg/ml, 72 hours): 50%; collagen I concentration in the media ([1]; 7 days): 0.6 µg/mL; increase in collagen III ([1]; any dose used, 72 hours): did not induce a significant increase
4 | lactoperoxidase [LP] | did not appear to affect collagen III immuno-reactivity | increased staining intensity for collagen I | increased ECM protein levels dose dependently | 1.1 |  | 0.18 | 0.07 | increased the collagen VI levels |  | increase in collagen I compared to controls ([1]; 80 μg/ml, 6 h treatment, 72 hours): 4 fold; increase in collagen I compared to controls ([1]; 310 μg/ml, 72 hours): 8 fold; increase in collagen VI levels ([1]; 160 and 310 μg/ml, 72 hours): 2 fold; changes in collagen III levels (non-significant) ([1]; doses from 10-310 μg/ml, 72 hours): 1.5-1.7 fold
5 | B1 | increased collagen III staining | increased staining intensity for collagen I | increased ECM protein levels dose dependently |  |  | 0.22 | 0.13 | increased the collagen VI levels | 3-3.5 fold | increase in collagen I compared to controls ([1]; 0.2 μg/ml, 72 hours): 1.5 fold; increase in collagen VI compared to controls ([1]; 1.56 μg/ml, 72 hours): 2 fold; increase in collagen III compared to controls ([1]; 3.12 μg/ml, 72 hours): 3 fold; increase in collagen I compared to controls ([1]; 50 μg/ml, 72 hours): 10 fold; increase in collagen III compared to controls ([1]; 25 and 50 μg/ml, 72 hours): 4 fold; collagen III level ([1]; 7 days, 12.5 μg/ml, untreated control 0.06 μg/ml): 0.3 µg/mL; increase in collagen I, steady state response ([1]; doses between 6.25 and 50 μg/ml, 72 hours): 9-10 fold
